Test results taken from US7462630B2, “Diarylalkene derivatives and novel diarylalkane derivatives” (Ajinomoto Co., Inc., priority 2001, dated 2008).

Legend:
[1] = system: Sprague-Dawley (SD) rats, formalin-induced flinching; test: Analgesic effects in the formalin test; assay type: in vivo, rat
Procedure: Four test groups each composed of 7 male Sprague-Dawley: SD rats (9 weeks old) were used for the experiment. In the control group, 0.5% tragacanth solution was given to the rats. In other test groups, 0.3, 3 or 30 mg/kg of the compound obtained in Example 11 (compound A) was given to them. Compound A was used in the form of a suspension thereof in 0.5% tragacanth solution.
Five ml/kg of 0.5% tragacanth solution or compound A was orally administered to the rats. Three hours after, the rats were tranquilized with halothane, and 2.5% formalin solution (100 μl) was injected subcutaneously to dorsal surface of the left hindpaw. Immediately thereafter, the rats were awaken from the anesthesia. […] The number of times of retracting action, i.e., flinching action of the hindpaw in which formalin had been injected, was counted for 1 minute at an interval of one minute until 5 minutes after the formalin injection, and for 1 minute at an interval of 5 minutes from 10 to 60 minutes after the injection. As reported in a literature (J. Pharmacol. Exp. Ther. 263: 136-146, 1992), the pain reaction by the stimulation with formalin appeared in two phases. The total number of times of the flinching action observed 10 to 60 minutes after the formalin injection (the second phase) was taken as the index of the pain action.
The experiment was conducted in the same manner as that in above Test Example 3 except for the followings.
Five test groups each composed of 6 male Sprague-Dawley (SD) rats (9 weeks old) were used for the experiment. In the control group, polyethylene glycol 400 was given to the rats. In the other test groups, 3, 30, 100 or 300 mg/kg of the compound obtained in Example 71 (compound B) was given to them. Compound B was used in the form of a solution thereof in polyethylene glycol 400 (PEG).
Three ml/kg of PEG or compound B was orally administered to the rats.

[2] = system: Sprague-Dawley (SD) rats, partial sciatic nerve ligation (Seltzer model); test: Analgesic effects on a neuropathic pain model (partial sciatic nerve ligation model, mechanical allodynia, von Frey filaments); assay type: in vivo, rat; details: one hour after administration
Procedure: The effect of compound A in improving mechanical allodynia was evaluated using the partial sciatic nerve ligation model (Seltzer model, Pain, 43: 205-218, 1990) which belongs to the neuropathic pain models. For detecting the mechanical allodynia, the sole of the right paw of each rat was stimulated with von Frey filaments, and the threshold of the reaction for the mechanical stimulation (50% threshold) was determined according to a method of Chaplan et al. (J. Neurosci. Methods, 53: 55-63, 1994). In this step, the stimulation of the sole of the paw with each filament was repeated 8 times at a rate of about twice a second.
About a half thickness of the right sciatic nerve of each 8 week-old male Sprague-Dawley (SD) rat, whose reaction threshold was determined before the nerve injury, was ligated with a surgical suture to partially injure the nerve according to a method of Seltzer et al. (Pain, 43: 205-218, 1990). Six days after the nerve injury, the reaction threshold of the right hindpaw was determined and compared with that determined before the nerve injury. Individuals having a threshold far lower than that determined before the nerve injury [i.e. rats showing mechanical allodynia] were selected for evaluating allodynia improving effect. Seven and 9 days after the nerve injury, the reaction threshold of the rats selected for the purpose of the evaluation was determined before compound administration. […] One hour after the administration, the reaction threshold of each rat was determined.
The effect of compound B in improving mechanical allodynia was evaluated using the partial sciatic nerve ligation model (Seltzer model, Pain, 43: 205-218, 1990) which belongs to the neuropathic pain models. […] Six days after the nerve injury, the reaction threshold of the right hindpaw was determined and was compared with that determined before the nerve injury. Individuals having a threshold far lower than that determined before the nerve injury [i.e. rats showing mechanical allodynia] were selected for evaluating allodynia improving effect. […]

Structure (SMILES)	inhibiting ratio of flinches (second phase, 10 to 60 min) based on control group ([1]; 0.3 mg/kg oral, suspension in 0.5% tragacanth, 3 hours before formalin)	inhibiting ratio of flinches (second phase, 10 to 60 min) based on control group ([1]; 3 mg/kg oral, suspension in 0.5% tragacanth, 3 hours before formalin)	inhibiting ratio of flinches (second phase, 10 to 60 min) based on control group ([1]; 30 mg/kg oral, suspension in 0.5% tragacanth, 3 hours before formalin)	reaction threshold for mechanical stimulation (50% threshold) after the administration ([2]; 3 mg/kg oral in 0.5% tragacanth)	inhibiting ratio of flinches (second phase, 10 to 60 min) based on control group ([1]; 3 mg/kg oral, solution in polyethylene glycol 400)	inhibiting ratio of flinches (second phase, 10 to 60 min) based on control group ([1]; 30 mg/kg oral, solution in polyethylene glycol 400)	inhibiting ratio of flinches (second phase, 10 to 60 min) based on control group ([1]; 100 mg/kg oral, solution in polyethylene glycol 400)	inhibiting ratio of flinches (second phase, 10 to 60 min) based on control group ([1]; 300 mg/kg oral, solution in polyethylene glycol 400)	reaction threshold for mechanical stimulation (50% threshold) after the administration ([2]; 3 mg/kg oral in PEG)	reaction threshold for mechanical stimulation (50% threshold) after the administration ([2]; 100 mg/kg oral in PEG)
CC(C)(C)C(=O)NCCC(=O)N1CCC(=C2c3ccccc3C=Cc3ccccc32)CC1 [Example 11, N-{3-[4-(5H-dibenzo[a,d][7]annulen-5-ylidene)-1-piperidinyl]-3-oxopropyl}-2,2-dimethylpropanamide]	10%	42%	37%	increased	–	–	–	–	–	–
CC(C)(C)C(=O)N[C@H](CO)CCC(=O)N1CCC(=C2c3ccccc3C=Cc3ccccc32)CC1 [Example 71, (S)-N-[4-[4-(5H-dibenzo[a,d][7]annulen-5-ylidene)-1-piperidinyl]-1-(hydroxylmethyl)-4-oxobutyl]-2.2-dimethylpropanamide]	–	–	–	–	11%	33%	53%	59%	hardly changed	clearly increased
